pEC50, pIC50: −log10 of the molar value. ≈ marks a conversion by molar mass, not a printed value.
Columns and labels:
[1] = test system: Human alphaherpesvirus 2; assay: Antiviral activity against HSV-2 assessed as inhibition of viral growth; assay type: functional, organism-based
[2] = test system: Human alphaherpesvirus 1; assay: Antiviral activity against HSV-1 assessed as inhibition of viral growth; assay type: functional, organism-based
[3] = test system: Human betaherpesvirus 5; assay: Antiviral activity against HCMV assessed as inhibition of viral growth; assay type: functional, organism-based
[4] = test system: Human immunodeficiency virus; assay: Antiviral activity against HIV assessed as inhibition of viral growth; assay type: functional, organism-based; conditions: Human immunodeficiency virus 1
[5] = test system: Hepatitis B virus; assay: Antiviral activity against HBV assessed as inhibition of viral growth; assay type: functional, organism-based
[6] = test system: Murid betaherpesvirus 1; assay: Antiviral activity against MCMV Smith infected in MEF cells assessed as reduction in plaque formation by plaque reduction assay; assay type: functional; conditions: Murid betaherpesvirus 1, Smith, read-out: ED50 (the source's name)
[7] = test system: HUVEC; assay: Angiogenic activity against HUVEC cells assessed as relative area of tube formation at 100 uM incubated for 10 days by tube formation assay; assay type: functional, Homo sapiens; conditions: time 10 day
[8] = test system: Human betaherpesvirus 5; assay: Antiviral activity against HCMV AD169 infected in HEL cells assessed as reduction in virus induced cytopathogenicity by plaque reduction assay; assay type: functional, organism-based; conditions: Human betaherpesvirus 5, AD169, HEL
[9] = test system: Human alphaherpesvirus 2; assay: Antiviral activity against HSV-2 186 infected in African green monkey Vero cells assessed as reduction in virus induced cytopathogenicity by plaque reduction assay; assay type: functional, organism-based; conditions: Human alphaherpesvirus 2, 186, Vero
[10] = test system: Hepatitis B virus; assay: Antiviral activity against HBV infected in human HepG2.2.15 cells assessed as reduction in virus induced cytopathogenicity by Southern blot analysis; assay type: functional, organism-based
[11] = test system: Human immunodeficiency virus 1; assay: Antiviral activity against HIV-1 HTLV-IIIB infected in human MT4 cells assessed as reduction in virus induced cytopathogenicity by immunofluorescence assay; assay type: functional, organism-based; conditions: Human immunodeficiency virus 1, HTLV-IIIB
[12] = test system: Human alphaherpesvirus 1; assay: Antiviral activity against HSV-1 KOS infected in African green monkey Vero cells assessed as reduction in virus induced cytopathogenicity by plaque reduction assay; assay type: functional, organism-based; conditions: Human alphaherpesvirus 1, KOS
[13] = test system: Human alphaherpesvirus 2; assay: Potency index, ratio of acyclovir EC50 to test compound EC50 for antiviral activity against HSV-2 186 infected in African green monkey Vero cells assessed as reduction in virus induced cytopathogenicity by plaque reduction assay; assay type: functional
[14] = test system: Human alphaherpesvirus 1; assay: Potency index, ratio of acyclovir EC50 to test compound EC50 for antiviral activity against HSV-1 KOS infected in African green monkey Vero cells assessed as reduction in virus induced cytopathogenicity by plaque reduction assay; assay type: functional
[15] = test system: Human immunodeficiency virus 2; assay: Antiviral activity against HIV-2 D194 infected in PBMC assessed as inhibition of viral replication at 45 microM relative to control; assay type: functional; conditions: Human immunodeficiency virus 2, D194, PBMC
[16] = test system: Human immunodeficiency virus 1; assay: Antiviral activity against HIV-1 III B infected in PBMC assessed as inhibition of viral replication at 100 microM relative to control; assay type: functional; conditions: Human immunodeficiency virus 1, III B
[17] = test system: Human immunodeficiency virus 1; assay: Antiviral activity against HIV-1 HTLV-IIIB infected in human MT4 cells assessed as inhibition of viral replication; assay type: functional, organism-based; conditions: Human immunodeficiency virus 1, HTLV-IIIB
[18] = test system: Human alphaherpesvirus 2; assay: Antiviral activity against thymidine kinase deficient HSV-2 assessed as inhibition of viral replication by plaque reduction assay; assay type: functional, organism-based
[19] = test system: HUVEC; assay: Angiogenic activity against HUVEC cells assessed as relative area of tube formation at 100 uM incubated for 96 hrs by Alexa fluor 488 staining based analysis; assay type: functional, Homo sapiens
[20] = test system: Human immunodeficiency virus 1; assay: Antiviral activity against HIV-1 assessed as inhibition of viral replication; assay type: functional, organism-based
[21] = test system: Human immunodeficiency virus; assay: Antiviral activity against HIV RF assessed as inhibition of viral growth; assay type: functional, organism-based; conditions: Human immunodeficiency virus 1, RF
[22] = test system: Human alphaherpesvirus 1; assay: Antiviral activity against thymidine kinase positive HSV-1 123 infected in HFF cells assessed as reduction in viral replication incubated for 3 days by crystal violet staining based microplate reader analysis; assay type: functional, organism-based; conditions: Human alphaherpesvirus 1, 123, HFF, 72 h
[23] = test system: Human alphaherpesvirus 3; assay: Antiviral activity against thymidine kinase positive VZV OKA infected in HFF cells assessed as reduction in viral replication incubated for 10 days by crystal violet staining based microplate reader analysis; assay type: functional, organism-based; conditions: Human alphaherpesvirus 3, OKA, 240 h
[24] = test system: Human alphaherpesvirus 3; assay: Antiviral activity against thymidine kinase positive VZV V8907 infected in HFF cells assessed as reduction in viral replication incubated for 10 days by crystal violet staining based microplate reader analysis; assay type: functional, organism-based; conditions: Human alphaherpesvirus 3, V8907, HFF, 240 h
[25] = test system: Human alphaherpesvirus 3; assay: Antiviral activity against thymidine kinase positive VZV V8602/5-1-1 infected in HFF cells assessed as reduction in viral replication incubated for 10 days by crystal violet staining based microplate reader analysis; assay type: functional, organism-based; conditions: Human alphaherpesvirus 3, V8602/5-1-1, HFF, 240 h
[26] = test system: Human alphaherpesvirus 3; assay: Antiviral activity against thymidine kinase positive VZV Ellen infected in HFF cells assessed as reduction in viral replication incubated for 10 days by crystal violet staining based microplate reader analysis; assay type: functional, organism-based; conditions: Human alphaherpesvirus 3, Ellen, 240 h
[27] = test system: Human alphaherpesvirus 1; assay: (§1) Antiviral activity against lethal intracerebral HSV-1 123 infected in po dosed Swiss mouse model assessed as increase in animal survival administered as single double strength loading dose at 7 hrs post-inoculation and single strength dose at 23, 31, 47, 55, 71, 79 hrs post-inoculation and monitored for 21 days; assay type: functional; conditions: time 21 day
[28] = test system: Human alphaherpesvirus 3; assay: Antiviral activity against thymidine kinase positive VZV DKG infected in HFF cells assessed as reduction in viral replication incubated for 10 days by crystal violet staining based microplate reader analysis; assay type: functional, organism-based; conditions: Human alphaherpesvirus 3, DKG, 240 h
[29] = Antiproliferative against human HFF cells assessed as inhibition of cell growth by neutral red uptake analysis; assay type: toxicity, cell-based
[30] = test system: Human alphaherpesvirus 1; assay: as §1, with “systemic” for “intracerebral”; assay type: functional; conditions: time 21 day
[31] = test system: Human alphaherpesvirus 1; assay: Antiviral activity against thymidine kinase positive HSV-1 E-377 infected in HFF cells assessed as reduction in viral replication incubated for 3 days by crystal violet staining based microplate reader analysis; assay type: functional, organism-based; conditions: Human alphaherpesvirus 1, E-377, HFF, 72 h
[32] = test system: Human alphaherpesvirus 1; assay: Antiviral activity against thymidine kinase positive HSV-1 SC-16 infected in HFF cells assessed as reduction in viral replication incubated for 3 days by crystal violet staining based microplate reader analysis; assay type: functional, organism-based; conditions: Human alphaherpesvirus 1, SC-16, HFF, 72 h

SMILES: Nc1ncnc2c1ncn2[C@@H]1C[C@H](CO)[C@H]1CO
- pIC50 [1]: 5.80
- pIC50 [2]: 5.80
- pIC50 [3]: 4.92
- pIC50 [4]: 7.52
- pIC50 [5]: 7.62
- EC50 [6]: 0.05 µg/mL (≈ 0.201 µM)

SMILES: Nc1nc(Cl)nc2c1ncn2[C@@H]1C[C@@H](CO)[C@H]1CO
- Ratio [7]: 3.43

SMILES: Nc1nc2c(ncn2COC(CO)CO)c(=O)[nH]1 [GANCICLOVIR]
- EC50 [8]: 0.71 µg/mL (≈ 2.78 µM)
- EC50 [6]: 1 µg/mL (≈ 3.92 µM)

SMILES: Nc1nc2c(ncn2[C@H]2C[C@@H](CO)C2)c(=O)[nH]1
- pEC50 [4]: 5.10

SMILES: Nc1ncnc2c1ncn2[C@@H]1C[C@](F)(CO)[C@H]1CO
- EC50 [9]: 1.33 µg/mL (≈ 4.98 µM)
- EC50 [10]: 0.41 µg/mL (≈ 1.53 µM)
- EC50 [11]: 3.73 µg/mL (≈ 14 µM)
- EC50 [8]: 0.18 µg/mL (≈ 0.673 µM)
- EC50 [12]: 2.72 µg/mL (≈ 10.2 µM)
- Ratio EC50 [13]: 7
- Ratio EC50 [14]: 7

SMILES: Nc1nc2c(ncn2[C@H]2C[C@@](F)(CO)C2)c(=O)[nH]1
- inhibition at 45 µM [15]: 50%
- inhibition at 100 µM [16]: 30%

SMILES: Nc1nc(F)nc2c1ncn2[C@@H]1O[C@H](CO)[C@H]1CO
- pIC50 [17]: 7.80
- pIC50 [18]: 5.41

SMILES: Nc1nc(Br)nc2c1ncn2[C@@H]1C[C@H](CO)[C@H]1CO
- Ratio [19]: 2.1

SMILES: Nc1ccn([C@@H]2CS[C@H](CO)O2)c(=O)n1 [LAMIVUDINE]
- EC50 [9]: 0.39 µg/mL (≈ 1.7 µM)
- EC50 [10]: 0.009 µg/mL (≈ 0.0393 µM)

SMILES: Nc1nc2c(ncn2N2C[C@H](CO)[C@H]2CO)c(=O)[nH]1
- EC50 [1]: 6.32 µg/mL (≈ 23.7 µM)
- EC50 [2]: 5.36 µg/mL (≈ 20.1 µM)
- EC50 [20]: 0.46 µg/mL (≈ 1.73 µM)

SMILES: Nc1nc(I)nc2c1ncn2[C@@H]1C[C@H](CO)[C@H]1CO
- Ratio [19]: 2.01

SMILES: [N-]=[N+]=N[C@H]1[C@H](n2cnc3c(N)ncnc32)O[C@@H]1CO
- IC50 [21]: 6 µg/mL (≈ 22.9 µM)

SMILES: COc1nc(N)c2ncn([C@@H]3C[C@H](CO)[C@H]3CO)c2n1
- Ratio [7]: 1.87

SMILES: Nc1nc(Cl)nc2c1ncn2C1CC2(C1)CC(CO)(CO)C2
- Ratio [7]: 3.59

SMILES: Nc1ncnc2c1ncn2[C@H]1C[C@@H](CO)C1
- pEC50 [4]: 6.10

SMILES: Nc1ncnc2c1ncn2N1C[C@H](CO)[C@H]1CO
- EC50 [1]: 34.9 µg/mL (≈ 139 µM)
- EC50 [2]: 33.2 µg/mL (≈ 133 µM)
- EC50 [20]: 0.37 µg/mL (≈ 1.48 µM)

SMILES: Nc1nc(Cl)nc2c1ncn2[C@@H]1O[C@H](CO)[C@H]1CO
- pIC50 [17]: 6.36

SMILES: Cc1cn([C@@H]2O[C@H](CO)[C@H]2CO)c(=O)[nH]c1=O
- pEC50 [22]: 7.92
- pEC50 [23]: 8.00
- pEC50 [24]: 8.00
- pEC50 [25]: 8.00
- pEC50 [26]: 8.00
- ED50 [27]: 211 mg/kg.day
- pEC50 [28]: 8.00
- pIC50 [29]: < 4.00
- ED50 [30]: 142 mg/kg.day
- pEC50 [31]: 7.92
- pEC50 [32]: 7.92

From ChEMBL document CHEMBL5325393, “A mini-review on synthesis and antiviral activity of natural product oxetanocin A derivatives” (Bioorg Med Chem, 2022)
